Results published in paper PMC10305181, “A VEGFB-Based Peptidomimetic Inhibits VEGFR2-Mediated PI3K/Akt/mTOR and PLCγ/ERK Signaling and Elicits Apoptotic, Antiangiogenic, and Antitumor Activities” (Pharmaceuticals, 2023).
Bridge positions count the residues as written; N and C are the ends. Peptide text beside a SMILES is read from it.

Experiments:
[1] = test system: ectodomain of VEGFR1; conditions: ref [9], cited from earlier work
Description: Our previous study has shown that a peptide reproducing helix α1 of VEGFB can unexpectedly interfere with VEGF binding to VEGFR2 and, consequently, inhibit VEGF-stimulated angiogenesis and tumor growth. In the present study, we extend this observation using another peptide (C-VGB3) that mimics loop2 and its adjacent region of VEGFB. […] For instance, competitive binding of C-VGB3 (100 μM) with biotinyl ...

[2] = test system: CD31-stained microvessels; test: CD31 immunohistochemistry of 4T1 tumors (microvessel density); format: in vivo, murine; conditions: 0.2 mg·kg^−1 i.v.; day 33; n = 3; p = 0.02
Description: Figure 2 Loop formation is important for the antitumor activity of VGB3. (A) To investigate the efficacy of VGB3 peptides in vivo 13 days after transplantation of a 4T1 murine MCT into female BALB/c mice (the tumor volume ~150 mm^3), the treatment groups received 0.2 mg·kg^−1 (once every 2 days, i.v.) of either the C-VGB3 or L-VGB3 and the control group received PBS for 20 days. Error bars denote ± SEM. n = 6; **** p < 0.0001, ns = not significant; two-way ANOVA. (B) Investigation of C-VGB3 and L-VGB3 effects on mice weight. […] (C,D) Immunohistochemical (IHC) analyses of CD31 and Ki67 for the C-VGB3-, L-VGB3- and PBS-treated tumors. For IHC staining, the sections of tumor tissues were incubated with the primary mouse monoclonal antibodies for CD31 (1:2000 (v/v)) and Ki67 (5 µg·mL^−1). […] Photographs were taken at 40× magnification. Error bars denote ± SEM. n = 3; * 0.02 ≤ p ≤ 0.04, ns = not significant; one-way ANOVA.
For immunohistochemistry staining, deparaffinized tumor sections were incubated overnight at 4 °C with mouse monoclonal primary anti-Ki67 (5 µg·mL^−1) or anti-CD31 (1:2000 (v/v)). The antigens were detected using 3,3-diaminobenzidine. All images were captured and analyzed with an Olympus BX51 microscope (Olympus America, New York, NY, USA).

CC(C)C[C@@H]1NC(=O)CNC(=O)[C@H](CC(=O)O)NC(=O)[C@H](CC(=O)O)NC(=O)[C@@H]2CCCN2C(=O)[C@@H]2CCCN2C(=O)[C@H](CCCNC(=N)N)NC(=O)[C@@H](NC(=O)[C@@H](N)CCC(=O)O)CSSC[C@@H](C(=O)O)NC1=O [C-VGB3] (H-ECRPPDDGLC-OH; disulfide 2-10)
displacement of btVEGF165 ([1]; 100 μM, ectodomain of VEGFR1): 63% | binding to VEGFR1 [1]: bind and neutralize VEGFR1 | reduction in vessel density (CD31) [2]: 84%
